Values quoted from earlier work, collected in publication PMC8198792, “Prediction of Anticancer Peptides with High Efficacy and Low Toxicity by Hybrid Model Based on 3D Structure of Peptides” (International Journal of Molecular Sciences, 2021).
Read-outs that look alike come from different tables or passages of the source.

Columns and labels:
cancer cell lines = tested on: cancer cell lines; set-up: method as in 6 sources, ref CancerPPD [45] and SATPdb ||| ref CancerPPD/SATPdb ||| ref CancerPPD, SATPdb, Swissprot (PDB) ||| ref CancerPPD/SATPdb/Swissprot(PDB) ||| ref CancerPPD / SATPdb ||| ...; conditions: cited from earlier work
Text: Supplement ijms-22-05630-s001.zip/ACPs(seguence).xlsx, sheet "D1" | column: Activity || Supplement ijms-22-05630-s001.zip/ACPs(seguence).xlsx, sheet "D2" | column: Activity || Supplement ijms-22-05630-s001.zip/ACPs(seguence).xlsx, sheet "D3" | column: Activity || (+ 2 further places)

erythrocytes = conditions: cited from earlier work
Text: Supplement ijms-22-05630-s001.zip/Hemloytic Peptides(seguence).xlsx, sheet "HD1" | column: Activity || Supplement ijms-22-05630-s001.zip/Hemloytic Peptides(seguence).xlsx, sheet "HD2" | column: Activity || Supplement ijms-22-05630-s001.zip/Hemloytic Peptides(seguence).xlsx, sheet "HD3" | column: Activity

[1] = ACPs dataset D3 (sheet "D3"), label 1 = ACP, 0 = non-ACP, ref CancerPPD/SATPdb
[2] = ACPs dataset D4 (sheet "D4"), label 1 = ACP, 0 = non-ACP, ref CancerPPD / SATPdb
[3] = ACPs dataset D5, sheet "D5", label 1 = ACP, 0 = non-ACP, ref CancerPPD [45] and SATPdb
[4] = Hemolytic peptides dataset HD2, label 1 = hemolytic, 0 = non-hemolytic, ref Hemolytik/SATPdb
[5] = hemolytic peptides dataset HD3, 1 = hemolytic (positive set), 0 = non-hemolytic (negative set), labels taken from databases, ref Hemolytik/SATPdb
[6] = ACPs dataset D3 (supplement sheet "D3"), 1 = ACP, 0 = non-ACP, ref CancerPPD [45] and SATPdb
[7] = ACPs dataset D1, label 1 = ACP, 0 = non-ACP (non-anticancer AMPs from SATPdb), ref CancerPPD/SATPdb
[8] = ACPs dataset D4 (sheet "D4"), label 1 = ACP (CancerPPD ID), 0 = non-ACP (non-anticancer AMP, SATPdb ID), ref CancerPPD [45] and SATPdb
[9] = ACPs dataset D1, 1 = ACP (positive), 0 = non-ACP (negative), label taken from databases, ref CancerPPD [45] and SATPdb
[10] = natural hemolytic peptide dataset HD1, label collected from databases, ref Hemolytik [49], SATPdb [34]

| Substance | Activity (cancer cell lines; [1]) | Activity (cancer cell lines; [2]) | Activity (cancer cell lines; [3]) | Activity (erythrocytes; [4]) | Activity (erythrocytes; [5]) | Activity (cancer cell lines; [6]) | Activity (cancer cell lines; [7]) | Activity (cancer cell lines; [8]) | Activity (erythrocytes) | Activity (dataset HD1, hemolytic 1 / non-hemolytic 0) (erythrocytes) | Activity (cancer cell lines; [9]) | Activity (dataset HD1, hemolytic 1 / non-hemolytic 0) (erythrocytes; [10]) |
| --- | --- | --- | --- | --- | --- | --- | --- | --- | --- | --- | --- | --- |
| CIAKGNGCQPSGVQGNCCSGHCHKEPGWVAGYCK [satpdb13088] | 0 | 0 | 0 | 0 | 0 |  |  |  |  |  |  |  |
| KWKSFLKTFKSAKKKVLHKALKAISS [satpdb10714] |  | 0 | 0 | 1 | 1 | 0 |  |  |  |  |  |  |
| GLLSGILGAGKQKVCGLSGLC [satpdb12339] |  |  |  |  |  |  | 0 | 0 | 1 | 1 |  |  |
| yPVKLyPVKL [satpdb11316] |  | 0 | 0 | 1 | 1 | 0 |  |  |  |  |  |  |
| FLPLIGRVLSGAL [satpdb13300] | 0 | 0 | 0 |  |  |  |  |  | 1 |  |  |  |
| KKKAAAFAAWAAFAKKK [satpdb11969] | 0 | 0 | 0 |  |  |  |  |  | 0 |  |  |  |
| IWRIFRRIFRIF [satpdb11167] |  | 0 | 0 | 1 | 1 | 0 |  |  |  |  |  |  |
| FPFSLIPHAIGGLISAIK [satpdb11349] |  |  |  |  | 1 |  |  | 0 |  |  | 0 | 1 |
| VKLKVypLKVKLyP [satpdb10873] |  | 0 | 0 | 1 | 1 | 0 |  |  |  |  |  |  |
| LLLFLLKKRKKRKY [satpdb12213] |  |  |  |  |  |  | 0 | 0 | 1 | 1 |  |  |
| FKCKKVVISLRRY [satpdb11913] |  |  |  |  | 0 |  | 0 | 0 |  |  |  | 0 |
| KNLRRIIRKGIHIIKKYF [satpdb11799] |  |  |  |  |  |  | 0 | 0 | 1 | 1 |  |  |
| GFLSSLKKSLPKSXAHSK [satpdb13158] | 0 | 0 | 0 | 1 | 1 |  |  |  |  |  |  |  |
| FSPQMLQDIIEKKTKIL [satpdb13152] |  | 0 |  |  |  |  | 0 |  | 0 | 0 |  |  |
| VKlKVyPLKVKLyP [satpdb13308] | 0 | 0 | 0 |  |  |  |  |  | 1 |  |  |  |
| AKKVFKRLGIGAVLWVLTWG [satpdb10183] |  |  |  |  | 1 |  |  | 0 |  |  | 0 | 1 |
| MQFITDLIKKAVDFFKGLFGNK [satpdb11952] |  |  |  |  | 1 |  | 0 | 0 |  |  |  | 1 |
| KWKKLLKKPLKLLKKLLK [satpdb12290] | 0 | 0 | 0 |  |  |  |  |  | 1 |  |  |  |
| GLVTSLIKGAGKLLGGLFGSVTGGQS [satpdb13110] |  | 0 |  |  |  |  | 0 |  | 1 | 1 |  |  |
| GKKLLKKLKKLLKKW [satpdb10586] |  | 0 | 0 |  |  | 0 |  |  | 1 |  |  |  |

| Substance | Activity (cancer cell lines; [1]) | Activity (cancer cell lines; [2]) | Activity (cancer cell lines; [3]) | Activity (erythrocytes; [4]) | Activity (erythrocytes; [5]) | Activity (cancer cell lines; [6]) | Activity (cancer cell lines; [7]) | Activity (cancer cell lines; [8]) | Activity (erythrocytes) | Activity (dataset HD1, hemolytic 1 / non-hemolytic 0) (erythrocytes) | Activity (cancer cell lines; [9]) | Activity (dataset HD1, hemolytic 1 / non-hemolytic 0) (erythrocytes; [10]) |
| --- | --- | --- | --- | --- | --- | --- | --- | --- | --- | --- | --- | --- |
| FLSLALAALPKLFCLIFKKC [satpdb10291] |  |  |  |  | 1 |  |  | 0 |  |  | 0 | 1 |
| GLGSLLGKAFKIGLKTVGKMMGGAPREQ [satpdb12448] |  |  |  |  |  |  | 0 | 0 | 1 | 1 |  |  |
| RKLRRLKRKIAHKVKKY [satpdb10022] |  | 0 | 0 |  |  | 0 |  |  | 0 |  |  |  |
| VKLyPVKLyP [satpdb11941] |  | 0 | 0 | 1 | 1 | 0 |  |  |  |  |  |  |
| GRFKRFRKKFKKLFKKLSPVIPLLHL [satpdb13682] | 0 | 0 | 0 |  |  |  |  |  | 1 |  |  |  |
| ILPLKLPLLPWRR [satpdb11013] |  | 0 | 0 | 0 | 0 | 0 |  |  |  |  |  |  |
| FLPLIGAVLSGIL [satpdb13723] | 0 | 0 | 0 |  |  |  |  |  | 1 |  |  |  |
| VNSKKISPKSIKVSK [satpdb10612] |  | 0 | 0 | 1 | 1 | 0 |  |  |  |  |  |  |
| GFLSILKKVLGKVMAHMK [satpdb11125] |  | 0 | 0 | 1 | 1 | 0 |  |  |  |  |  |  |
| GFMKYIKPLIPHAVKAIKKLI [satpdb12244] | 0 | 0 | 0 |  |  |  |  |  | 1 |  |  |  |
| FLPAIAGILSQLF [satpdb10431] |  | 0 | 0 |  |  | 0 |  |  | 1 |  |  |  |
| ALPLIGRVLSGIL [satpdb11361] |  | 0 | 0 |  |  | 0 |  |  | 1 |  |  |  |
| DYDWSLRGPPKCATYGQKCRTWSPPNCCWNLRCKAFRCRPR [satpdb13169] |  | 0 |  |  | 1 |  | 0 |  |  |  |  | 1 |
| DAACAAKCLWR [satpdb10773] |  | 0 | 0 | 0 | 0 | 0 |  |  |  |  |  |  |
| KWKSFLKTFKSAKKTVLHTALKLISS [satpdb12569] | 0 | 0 | 0 |  |  |  |  |  | 1 |  |  |  |
| DVNDLKNLCAKTHNLLPMCAMF [satpdb13885] | 0 | 0 | 0 |  |  |  |  |  | 0 |  |  |  |
| WLKKLLKKLLK [satpdb12765] | 0 | 0 | 0 |  |  |  |  |  | 1 |  |  |  |
| FLAGLIGGLAKMLGK [satpdb10461] |  |  |  |  |  |  |  | 0 | 1 | 1 | 0 |  |
| ALWFTMLKKLGTMALHAGKAALGAAANTISQGTQ [satpdb13357] |  | 0 |  |  |  |  | 0 |  | 1 | 1 |  |  |
